Key:
[1] = tested on: Arabidopsis thaliana plants; assay: SOA1 phenotypic analysis of herbicide-treated Arabidopsis (MIC, Tmic, leaf traits); type: in vivo; conditions: for leafCurling Dev. / leafTwisting Dev. / leafWidth Dev. / matureLeafAnthocyanins Dev. / matureLeafChlorosis Dev. / matureLeafNecrosis Dev. / newLeafAnthocyanins Dev. / newLeafChlorosis Dev. / newLeafNecrosis Dev. / pointedLeaves Dev.: numeric value standardized to mock treated; for tMic Dev.: time to full range of symptoms at MIC, coded; for characteristic morphological symptoms: herbicide-treated Arabidopsis
Arabidopsis thaliana = assay: MOA1 biochemical (metabolite) profiling by LC-MS and GC-MS

In the case of `O=C(O)COc1ccc(Cl)cc1Cl` [2,4-D], the “leafCurling Dev.” value [1] is reported as 1, the “leafTwisting Dev.” value [1] is reported as 2 and the “leafWidth Dev.” value [1] is reported as −1. For the same molecule, the “matureLeafAnthocyanins Dev.” value [1] was 1, the “matureLeafChlorosis Dev.” value [1] was 2 and the “matureLeafNecrosis Dev.” value [1] was 0. The “newLeafAnthocyanins Dev.” value [1] was 0, the “newLeafChlorosis Dev.” value [1] was 1 and the “newLeafNecrosis Dev.” value [1] was 0. The “pointedLeaves Dev.” value [1] was 0, the “Symptom Class” value ([1]; three-week-old Arabidopsis, phenotype class (FIG. 12)) was 5 and the “tMic Dev.” value [1] was 2. For the same molecule, the “Number of Metabolites Changed: (unknown #)” value (Arabidopsis thaliana; 20 min, p < 0.05) was 2, the “Number of Metabolites Changed: Total #” value (Arabidopsis thaliana; 20 min, p < 0.05) was 3 and the “Number of Metabolites Changed: (unknown #)” value (Arabidopsis thaliana; 20 min, p < 0.11) was 8. The “Number of Metabolites Changed: Total #” value (Arabidopsis thaliana; 20 min, p < 0.11) was 13, the “Number of Metabolites Changed: (unknown #)” value (Arabidopsis thaliana; 1 hr, p < 0.05) was 3 and the “Number of Metabolites Changed: Total #” value (Arabidopsis thaliana; 1 hr, p < 0.05) was 7. For the same molecule, the “Number of Metabolites Changed: (unknown #)” value (Arabidopsis thaliana; 1 hr, p < 0.11) was 15 and the “Number of Metabolites Changed: Total #” value (Arabidopsis thaliana; 1 hr, p < 0.11) was 25.
In the case of `O=C(O)c1cc(Oc2ccc(C(F)(F)F)cc2Cl)ccc1[N+](=O)[O-]` [Acifluorfen], the characteristic morphological symptoms [1] is reported as “Necrotic leaf flecks”, the “leafCurling Dev.” value [1] is reported as 1 and the “leafTwisting Dev.” value [1] is reported as 0. The “leafWidth Dev.” value [1] was 0, the “matureLeafAnthocyanins Dev.” value [1] was 0 and the “matureLeafChlorosis Dev.” value [1] was 0. For the same molecule, the “matureLeafNecrosis Dev.” value [1] was 1, the “newLeafAnthocyanins Dev.” value [1] was 0 and the “newLeafChlorosis Dev.” value [1] was 0. For the same molecule, the “newLeafNecrosis Dev.” value [1] was 3, the “pointedLeaves Dev.” value [1] was 0 and the “tMic Dev.” value [1] was 1. The “Number of Metabolites Changed: (unknown #)” value (Arabidopsis thaliana; 20 min, p < 0.05) was 11, the “Number of Metabolites Changed: Total #” value (Arabidopsis thaliana; 20 min, p < 0.05) was 17 and the “Number of Metabolites Changed: (unknown #)” value (Arabidopsis thaliana; 20 min, p < 0.11) was 20. For the same molecule, the “Number of Metabolites Changed: Total #” value (Arabidopsis thaliana; 20 min, p < 0.11) was 32, the “Number of Metabolites Changed: (unknown #)” value (Arabidopsis thaliana; 1 hr, p < 0.05) was 13 and the “Number of Metabolites Changed: Total #” value (Arabidopsis thaliana; 1 hr, p < 0.05) was 19. For the same molecule, the “Number of Metabolites Changed: (unknown #)” value (Arabidopsis thaliana; 1 hr, p < 0.11) was 22 and the “Number of Metabolites Changed: Total #” value (Arabidopsis thaliana; 1 hr, p < 0.11) was 31.
With `Nc1nc[nH]n1` [Amitrole] the characteristic morphological symptoms [1] was “leaf bleaching and leaf enlargement”, the “leafCurling Dev.” value [1] was −1 and the “leafTwisting Dev.” value [1] was 0. For the same molecule, the “leafWidth Dev.” value [1] was 2, the “matureLeafAnthocyanins Dev.” value [1] was 0 and the “matureLeafChlorosis Dev.” value [1] was 3. For the same molecule, the “matureLeafNecrosis Dev.” value [1] was 0, the “newLeafAnthocyanins Dev.” value [1] was 0 and the “newLeafChlorosis Dev.” value [1] was 4. The “newLeafNecrosis Dev.” value [1] was 0, the “pointedLeaves Dev.” value [1] was 0 and the “tMic Dev.” value [1] was 2. The “Number of Metabolites Changed: (unknown #)” value (Arabidopsis thaliana; 20 min, p < 0.05) was 6, the “Number of Metabolites Changed: Total #” value (Arabidopsis thaliana; 20 min, p < 0.05) was 9 and the “Number of Metabolites Changed: (unknown #)” value (Arabidopsis thaliana; 20 min, p < 0.11) was 13. The “Number of Metabolites Changed: Total #” value (Arabidopsis thaliana; 20 min, p < 0.11) was 17, the “Number of Metabolites Changed: (unknown #)” value (Arabidopsis thaliana; 1 hr, p < 0.05) was 8 and the “Number of Metabolites Changed: Total #” value (Arabidopsis thaliana; 1 hr, p < 0.05) was 14. For the same molecule, the “Number of Metabolites Changed: (unknown #)” value (Arabidopsis thaliana; 1 hr, p < 0.11) was 20 and the “Number of Metabolites Changed: Total #” value (Arabidopsis thaliana; 1 hr, p < 0.11) was 32.
For `O=C(O)Cn1c(=O)sc2cccc(Cl)c21` [Benazolin], the “leafCurling Dev.” value [1] was 2, the “leafTwisting Dev.” value [1] was 2 and the “leafWidth Dev.” value [1] was −2. For the same molecule, the “matureLeafAnthocyanins Dev.” value [1] was 0, the “matureLeafChlorosis Dev.” value [1] was 0 and the “matureLeafNecrosis Dev.” value [1] was 0. For the same molecule, the “newLeafAnthocyanins Dev.” value [1] was 0, the “newLeafChlorosis Dev.” value [1] was 0 and the “newLeafNecrosis Dev.” value [1] was 0. The “pointedLeaves Dev.” value [1] was 0 and the “tMic Dev.” value [1] was 2.
In the case of `COC(=O)c1cc(Oc2ccc(Cl)cc2Cl)ccc1[N+](=O)[O-]` [Bifenox], the characteristic morphological symptoms [1] is reported as “Necrotic leaf flecks”, the “leafCurling Dev.” value [1] is reported as 1 and the “leafTwisting Dev.” value [1] is reported as 0. For the same molecule, the “leafWidth Dev.” value [1] was 0, the “matureLeafAnthocyanins Dev.” value [1] was 0 and the “matureLeafChlorosis Dev.” value [1] was 0. For the same molecule, the “matureLeafNecrosis Dev.” value [1] was 1, the “newLeafAnthocyanins Dev.” value [1] was 0 and the “newLeafChlorosis Dev.” value [1] was 0. The “newLeafNecrosis Dev.” value [1] was 3, the “pointedLeaves Dev.” value [1] was 0 and the “tMic Dev.” value [1] was 1.
In the case of `CCSC(=O)N(CC(C)C)CC(C)C` [Butylate], the “Number of Metabolites Changed: (unknown #)” value (Arabidopsis thaliana; 20 min, p < 0.05) is reported as 10, the “Number of Metabolites Changed: Total #” value (Arabidopsis thaliana; 20 min, p < 0.05) is reported as 17 and the “Number of Metabolites Changed: (unknown #)” value (Arabidopsis thaliana; 20 min, p < 0.11) is reported as 21. The “Number of Metabolites Changed: Total #” value (Arabidopsis thaliana; 20 min, p < 0.11) was 33, the “Number of Metabolites Changed: (unknown #)” value (Arabidopsis thaliana; 1 hr, p < 0.05) was 12 and the “Number of Metabolites Changed: Total #” value (Arabidopsis thaliana; 1 hr, p < 0.05) was 18. For the same molecule, the “Number of Metabolites Changed: (unknown #)” value (Arabidopsis thaliana; 1 hr, p < 0.11) was 22 and the “Number of Metabolites Changed: Total #” value (Arabidopsis thaliana; 1 hr, p < 0.11) was 31.
`CC(C)OC(=O)Nc1cccc(Cl)c1` [Chloropropham] was tested, and the “Number of Metabolites Changed: (unknown #)” value (Arabidopsis thaliana; 20 min, p < 0.05) was 8, the “Number of Metabolites Changed: Total #” value (Arabidopsis thaliana; 20 min, p < 0.05) was 12 and the “Number of Metabolites Changed: (unknown #)” value (Arabidopsis thaliana; 20 min, p < 0.11) was 10. For the same molecule, the “Number of Metabolites Changed: Total #” value (Arabidopsis thaliana; 20 min, p < 0.11) was 17, the “Number of Metabolites Changed: (unknown #)” value (Arabidopsis thaliana; 1 hr, p < 0.05) was 5 and the “Number of Metabolites Changed: Total #” value (Arabidopsis thaliana; 1 hr, p < 0.05) was 12. For the same molecule, the “Number of Metabolites Changed: (unknown #)” value (Arabidopsis thaliana; 1 hr, p < 0.11) was 10 and the “Number of Metabolites Changed: Total #” value (Arabidopsis thaliana; 1 hr, p < 0.11) was 20.
For `COc1c(Cl)ccc(Cl)c1C(=O)O` [Dicamba], the “leafCurling Dev.” value [1] was 2, the “leafTwisting Dev.” value [1] was 2 and the “leafWidth Dev.” value [1] was −2. For the same molecule, the “matureLeafAnthocyanins Dev.” value [1] was 0, the “matureLeafChlorosis Dev.” value [1] was 2 and the “matureLeafNecrosis Dev.” value [1] was 0. The “newLeafAnthocyanins Dev.” value [1] was 0, the “newLeafChlorosis Dev.” value [1] was 0 and the “newLeafNecrosis Dev.” value [1] was 0. For the same molecule, the “pointedLeaves Dev.” value [1] was 0 and the “tMic Dev.” value [1] was 2.
In the case of `c1cc[n+]2c(c1)-c1cccc[n+]1CC2` [Diquat], the characteristic morphological symptoms [1] is reported as “rapid and widespread leaf necrosis”, the “leafCurling Dev.” value [1] is reported as 2 and the “leafTwisting Dev.” value [1] is reported as 0. The “leafWidth Dev.” value [1] was −2, the “matureLeafAnthocyanins Dev.” value [1] was 0 and the “matureLeafChlorosis Dev.” value [1] was 1. For the same molecule, the “matureLeafNecrosis Dev.” value [1] was 4, the “newLeafAnthocyanins Dev.” value [1] was 0 and the “newLeafChlorosis Dev.” value [1] was 1. The “newLeafNecrosis Dev.” value [1] was 4, the “pointedLeaves Dev.” value [1] was 1 and the “tMic Dev.” value [1] was 2.
For `CN(C)C(=O)Nc1ccc(Cl)c(Cl)c1` [Diuron], the characteristic morphological symptoms [1] was “rapid and widespread leaf necrosis”, the “leafCurling Dev.” value [1] was 1 and the “leafTwisting Dev.” value [1] was 0. The “leafWidth Dev.” value [1] was −2, the “matureLeafAnthocyanins Dev.” value [1] was 0 and the “matureLeafChlorosis Dev.” value [1] was 2. The “matureLeafNecrosis Dev.” value [1] was 4, the “newLeafAnthocyanins Dev.” value [1] was 0 and the “newLeafChlorosis Dev.” value [1] was 2. The “newLeafNecrosis Dev.” value [1] was 4, the “pointedLeaves Dev.” value [1] was 1 and the “tMic Dev.” value [1] was 1.
In the case of `CCc1cnc(C2=NC(C)(C(C)C)C(=O)N2)c(C(=O)O)c1` (stereo not drawn) [Imazethapyr], the characteristic morphological symptoms [1] is reported as “anthocyanin accumulation in the older leaves accompanied by chlorosis of the newly emerging leaves”, the “leafCurling Dev.” value [1] is reported as 1 and the “leafTwisting Dev.” value [1] is reported as 1. For the same molecule, the “leafWidth Dev.” value [1] was 0, the “matureLeafAnthocyanins Dev.” value [1] was 3 and the “matureLeafChlorosis Dev.” value [1] was 0. The “matureLeafNecrosis Dev.” value [1] was 0, the “newLeafAnthocyanins Dev.” value [1] was 0 and the “newLeafChlorosis Dev.” value [1] was 2. The “newLeafNecrosis Dev.” value [1] was 0, the “pointedLeaves Dev.” value [1] was 0 and the “tMic Dev.” value [1] was 2.
For `CCC(C)(CC)c1cc(NC(=O)c2c(OC)cccc2OC)on1` [Isoxaben], the “Number of Metabolites Changed: (unknown #)” value (Arabidopsis thaliana; 20 min, p < 0.05) was 12, the “Number of Metabolites Changed: Total #” value (Arabidopsis thaliana; 20 min, p < 0.05) was 26 and the “Number of Metabolites Changed: (unknown #)” value (Arabidopsis thaliana; 20 min, p < 0.11) was 21. The “Number of Metabolites Changed: Total #” value (Arabidopsis thaliana; 20 min, p < 0.11) was 45, the “Number of Metabolites Changed: (unknown #)” value (Arabidopsis thaliana; 1 hr, p < 0.05) was 16 and the “Number of Metabolites Changed: Total #” value (Arabidopsis thaliana; 1 hr, p < 0.05) was 25. For the same molecule, the “Number of Metabolites Changed: (unknown #)” value (Arabidopsis thaliana; 1 hr, p < 0.11) was 33 and the “Number of Metabolites Changed: Total #” value (Arabidopsis thaliana; 1 hr, p < 0.11) was 55.
`CSc1nnc(C(C)(C)C)c(=O)n1N` [Metribuzin] was tested, and the characteristic morphological symptoms [1] was “rapid and widespread leaf necrosis”, the “leafCurling Dev.” value [1] was 1 and the “leafTwisting Dev.” value [1] was 0. For the same molecule, the “leafWidth Dev.” value [1] was −2, the “matureLeafAnthocyanins Dev.” value [1] was 0 and the “matureLeafChlorosis Dev.” value [1] was 2. For the same molecule, the “matureLeafNecrosis Dev.” value [1] was 4, the “newLeafAnthocyanins Dev.” value [1] was 0 and the “newLeafChlorosis Dev.” value [1] was 2. The “newLeafNecrosis Dev.” value [1] was 4, the “pointedLeaves Dev.” value [1] was 1 and the “tMic Dev.” value [1] was 1.
`CNc1cnn(-c2cccc(C(F)(F)F)c2)c(=O)c1Cl` [Norflurazon] was tested, and the “Number of Metabolites Changed: (unknown #)” value (Arabidopsis thaliana; 20 min, p < 0.05) was 27, the “Number of Metabolites Changed: Total #” value (Arabidopsis thaliana; 20 min, p < 0.05) was 38 and the “Number of Metabolites Changed: (unknown #)” value (Arabidopsis thaliana; 20 min, p < 0.11) was 36. For the same molecule, the “Number of Metabolites Changed: Total #” value (Arabidopsis thaliana; 20 min, p < 0.11) was 55, the “Number of Metabolites Changed: (unknown #)” value (Arabidopsis thaliana; 1 hr, p < 0.05) was 5 and the “Number of Metabolites Changed: Total #” value (Arabidopsis thaliana; 1 hr, p < 0.05) was 6. The “Number of Metabolites Changed: (unknown #)” value (Arabidopsis thaliana; 1 hr, p < 0.11) was 8 and the “Number of Metabolites Changed: Total #” value (Arabidopsis thaliana; 1 hr, p < 0.11) was 12.

— patent publication US20030229451A1, “Methods and systems for analyzing complex biological systems” (priority 2001, published 2003)
